In patent US8198287B2, “Substituted heteroaryl pyridopyrimidone derivatives” (Sanofi-Aventis, priority 2006, dated 2012):

Target: GSK3β (Homo sapiens, UniProt P49841)
Assay: Inhibitory activity against GSK3β (33P-ATP phosphorylation of prephosphorylated GS1 peptide; two alternative protocols)
Type: biochemical
Settings: first or second protocol, not specified per compound
Method: Inhibitory Activity of the Medicament of the Present Invention Against GSK3β
Two different protocols can be used.
In a first protocol: 7.5 μM of prephosphorylated GS1 peptide and 10 μM ATP (containing 300,000 cpm of ^33P-ATP) were incubated in 25 mM Tris-HCl, pH 7.5, 0.6 mM DTT, 6 mM MgCl2, 0.6 mM EGTA, 0.05 mg/ml BSA buffer for 1 hour at room temperature in the presence of GSK3beta (total reaction volume: 100 microliters).
In a second protocol: 4.1 μM of prephosphorylated GS1 peptide and 42 μM ATP (containing 260,000 cpm ^33P-ATP) were incubated in 80 mM Mes-NaOH, pH 6.5, 1 mM Mg acetate, 0.5 mM EGTA, 5 mM 2-mercaptoethanol, 0.02% Tween 20, 10% glycerol buffer for 2 hours at room temperature in the presence of GSK3beta.
Inhibitors were solubilized in DMSO (final solvent concentration in the reaction medium, 1%).
The reaction was stopped with 100 microliters of a solution made of 25 g polyphosphoric acid (85% P2O5), 126 ml 85% H3PO4, H2O to 500 ml and then diluted to 1:100 before use. An aliquot of the reaction mixture was then transferred to Whatman P81 cation exchange filters and rinsed with the solution described above. Incorporated ^33P radioactivity was determined by liquid scintillation spectrometry.
The phosphorylated GS-1 peptide had the following sequence:
NH2—[…](P)EDEE-COOH. (Woodgett, J. R. (1989) Analytical Biochemistry 180, 237-241.

GSK3β, sequence (P49841 whole entry): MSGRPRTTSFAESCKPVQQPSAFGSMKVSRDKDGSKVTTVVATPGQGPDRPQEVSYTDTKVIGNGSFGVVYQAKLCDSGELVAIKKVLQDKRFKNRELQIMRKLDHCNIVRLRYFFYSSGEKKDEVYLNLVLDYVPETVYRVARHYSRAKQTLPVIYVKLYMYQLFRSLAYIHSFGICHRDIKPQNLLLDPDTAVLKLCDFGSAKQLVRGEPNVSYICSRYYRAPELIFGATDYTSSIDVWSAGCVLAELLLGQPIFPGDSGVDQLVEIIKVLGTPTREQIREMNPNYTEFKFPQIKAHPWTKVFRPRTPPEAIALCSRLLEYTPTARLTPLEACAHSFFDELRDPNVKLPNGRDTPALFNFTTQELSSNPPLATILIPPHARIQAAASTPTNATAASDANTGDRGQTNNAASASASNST

IC50 | SMILES
5 nM | O=C(NC1CCCCn2c1nc(-c1ccncn1)cc2=O)c1cccc(Cl)n1 (racemic) [53 of table 3, (+/−)6-Chloro-pyridine-2-carboxylic acid (4-oxo-2-pyrimidin-4-yl-4,6,7,8,9,10-hexahydro-pyrimido[1,2-a]azepin-10-yl)-amide]
14 nM | Nc1c(Cl)cc(C(=O)NC2CCCn3c2nc(-c2ccncc2)cc3=O)c2c1OCCO2 (racemic) [13 of table 1, (+/−)8-Amino-7-chloro-2,3-dihydro-benzo[1,4]dioxine-5-carboxylic acid (4-oxo-2-pyridin-4-yl-6,7,8,9-tetrahydro-4H-pyrido[1,2-a]pyrimidin-9-yl)-amide]
4 nM | CSc1ncc(Cl)c(C(=O)NC2CCn3c2nc(-c2ccncn2)cc3=O)n1 (racemic) [14 of table 2, (+/−)5-Chloro-2-methylsulfanyl-pyrimidine-4-carboxylic acid (4-oxo-2-pyrimidin-4-yl-4,6,7,8-tetrahydro-pyrrolo[1,2-a]pyrimidin-8-yl) -amide]
